Assay results as given in patent US20030166932A1 (priority 2002, published 2003).

Assays:
RXRβ [1] = biological target: T1, RXRβ (UniProt P28704); assay: holoreceptor transactivation assay; format: cell-based; conditions: for EC50: NA = Not Active, read-out: RXR Trans. EC50 (nM) β; for % efficacy, RXR Trans. β: relative to 10^−6 M AGN 194204
T1 sequence (P28704 1-520): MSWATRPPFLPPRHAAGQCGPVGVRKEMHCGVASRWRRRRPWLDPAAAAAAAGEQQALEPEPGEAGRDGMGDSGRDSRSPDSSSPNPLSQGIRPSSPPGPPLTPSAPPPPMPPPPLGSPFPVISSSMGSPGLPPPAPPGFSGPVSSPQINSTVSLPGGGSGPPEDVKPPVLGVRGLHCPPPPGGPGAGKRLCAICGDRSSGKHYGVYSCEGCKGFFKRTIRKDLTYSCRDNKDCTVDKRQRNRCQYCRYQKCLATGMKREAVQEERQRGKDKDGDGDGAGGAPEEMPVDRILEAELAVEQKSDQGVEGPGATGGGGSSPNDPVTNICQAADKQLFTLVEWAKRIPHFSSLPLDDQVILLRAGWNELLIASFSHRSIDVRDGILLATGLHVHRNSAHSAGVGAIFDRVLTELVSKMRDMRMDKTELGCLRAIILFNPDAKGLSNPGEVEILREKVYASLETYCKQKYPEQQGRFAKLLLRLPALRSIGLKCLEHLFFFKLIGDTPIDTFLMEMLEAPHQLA
Description: (§2) The results obtained in this assay are expressed in EC50 numbers, as they are also in the chimeric receptor transactivation assay. The results of ligand binding assay are expressed in Kd numbers.
(§3) Particularly, the transactivation data pertaining to RAR receptors were obtained in the chimeric assay, and the data pertaining to transactivation of RXR receptors were obtained in the holoreceptor transactivation assay.

RXRα [2] = biological target: T2, RXRα (Homo sapiens, UniProt P19793); assay: ligand binding assay
T2 sequence (P19793 1-462): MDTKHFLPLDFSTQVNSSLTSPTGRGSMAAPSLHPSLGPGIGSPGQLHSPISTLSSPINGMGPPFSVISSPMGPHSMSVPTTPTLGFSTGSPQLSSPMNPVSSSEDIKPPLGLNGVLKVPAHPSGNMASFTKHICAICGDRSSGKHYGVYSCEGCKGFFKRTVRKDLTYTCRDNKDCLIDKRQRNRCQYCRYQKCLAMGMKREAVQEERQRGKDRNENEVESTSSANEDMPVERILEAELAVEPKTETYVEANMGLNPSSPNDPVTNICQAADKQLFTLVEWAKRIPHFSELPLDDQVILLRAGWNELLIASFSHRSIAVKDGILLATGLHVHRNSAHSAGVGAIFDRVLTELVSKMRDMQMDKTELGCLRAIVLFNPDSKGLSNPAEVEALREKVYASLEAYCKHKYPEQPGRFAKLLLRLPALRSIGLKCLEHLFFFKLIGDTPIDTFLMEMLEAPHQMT
Description: as §2, §3

RXRβ [3] = biological target: T1, RXRβ; assay: ligand binding assay; conditions: read-out: RXR Bind Ki (nM) β
Description: as §2, §3

RARγ [4] = biological target: T3, RARγ (Homo sapiens, UniProt P13631); assay: ligand binding assay; conditions: read-out: RAR Bind. Ki (nM) Y
T3 sequence (P13631 1-454): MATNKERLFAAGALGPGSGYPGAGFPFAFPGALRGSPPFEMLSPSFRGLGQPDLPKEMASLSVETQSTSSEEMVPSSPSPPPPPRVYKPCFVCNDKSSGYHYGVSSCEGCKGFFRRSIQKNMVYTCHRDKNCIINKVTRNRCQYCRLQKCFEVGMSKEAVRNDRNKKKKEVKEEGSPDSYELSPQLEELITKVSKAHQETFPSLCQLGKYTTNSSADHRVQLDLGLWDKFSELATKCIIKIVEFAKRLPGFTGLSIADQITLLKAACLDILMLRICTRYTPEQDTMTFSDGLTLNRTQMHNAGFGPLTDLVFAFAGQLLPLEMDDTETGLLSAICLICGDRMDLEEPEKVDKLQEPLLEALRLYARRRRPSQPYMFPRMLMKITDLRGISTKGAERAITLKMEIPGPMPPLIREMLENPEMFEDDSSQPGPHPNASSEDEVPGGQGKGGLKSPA
Description: as §2, §3

RARβ [5] = biological target: T4, RARβ (Homo sapiens, UniProt P10826); assay: ligand binding assay; conditions: read-out: RAR Bind. Ki (nM) β
T4 sequence (P10826 1-455): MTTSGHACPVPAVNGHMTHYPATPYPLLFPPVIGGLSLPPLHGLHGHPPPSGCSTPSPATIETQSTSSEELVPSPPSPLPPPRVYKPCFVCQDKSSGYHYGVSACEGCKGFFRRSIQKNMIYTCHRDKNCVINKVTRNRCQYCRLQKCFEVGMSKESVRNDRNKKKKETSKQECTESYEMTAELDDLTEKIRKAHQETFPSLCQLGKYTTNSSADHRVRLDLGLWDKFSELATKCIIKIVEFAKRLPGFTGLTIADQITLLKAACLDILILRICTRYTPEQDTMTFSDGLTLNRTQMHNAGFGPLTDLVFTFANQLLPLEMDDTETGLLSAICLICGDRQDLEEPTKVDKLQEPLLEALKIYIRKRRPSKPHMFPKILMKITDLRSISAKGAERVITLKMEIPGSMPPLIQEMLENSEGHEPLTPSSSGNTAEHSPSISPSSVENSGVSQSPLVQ
Description: as §2, §3

RXRα [6] = biological target: T2, RXRα; assay: holoreceptor transactivation assay; conditions: for Emax: read-out: % efficacy, RXR Trans. α
Description: as §2, §3

RXRγ [7] = biological target: T5, RXRγ (UniProt P28705); assay: holoreceptor transactivation assay; format: cell-based; conditions: for EC50: NA = Not Active, read-out: RXR Trans. EC50 (nM) Y; for % efficacy, RXR Trans. Y: relative to 10^−6 M AGN 194204
T5 sequence (P28705 1-463): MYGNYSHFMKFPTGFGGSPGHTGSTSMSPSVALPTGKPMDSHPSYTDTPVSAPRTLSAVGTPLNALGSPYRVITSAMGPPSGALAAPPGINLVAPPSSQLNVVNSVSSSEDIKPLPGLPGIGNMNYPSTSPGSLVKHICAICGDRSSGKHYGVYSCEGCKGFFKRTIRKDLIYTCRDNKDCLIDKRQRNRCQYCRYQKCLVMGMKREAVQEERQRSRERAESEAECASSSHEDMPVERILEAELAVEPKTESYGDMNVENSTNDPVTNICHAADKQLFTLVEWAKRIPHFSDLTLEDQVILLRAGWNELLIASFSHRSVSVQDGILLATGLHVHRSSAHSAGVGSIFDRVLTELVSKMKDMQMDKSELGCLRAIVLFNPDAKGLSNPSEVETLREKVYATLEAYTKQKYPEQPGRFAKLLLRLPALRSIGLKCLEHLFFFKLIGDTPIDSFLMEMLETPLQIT
Description: as §2, §3

RXRγ [8] = biological target: T5, RXRγ; assay: ligand binding assay; conditions: read-out: RXR Bind Ki (nM) Y
RARβ [9] = biological target: T6, RARβ (Homo sapiens, UniProt P10826); assay: cell-based; format: cell-based; conditions: for EC50: NA = Not Active, read-out: RAR Trans. EC50 (nM) β; for Emax: relative to 10^−6 M ATRA, read-out: % efficacy, RAR Trans. β
T6 sequence (P10826 154-455): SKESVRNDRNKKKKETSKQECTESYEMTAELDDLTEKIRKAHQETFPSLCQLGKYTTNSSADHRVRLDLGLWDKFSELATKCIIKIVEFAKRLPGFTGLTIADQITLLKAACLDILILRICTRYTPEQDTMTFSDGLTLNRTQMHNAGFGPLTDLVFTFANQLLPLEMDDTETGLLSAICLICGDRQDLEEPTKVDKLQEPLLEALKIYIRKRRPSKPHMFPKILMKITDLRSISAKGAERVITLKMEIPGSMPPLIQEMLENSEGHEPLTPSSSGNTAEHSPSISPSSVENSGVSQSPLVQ
Description: (§1) The specification of U.S. Pat. No. 5,455,265 is hereby expressly incorporated by reference.

RARγ [10] = biological target: T7, RARγ (Homo sapiens, UniProt P13631); format: cell-based
T7 sequence (P13631 156-454): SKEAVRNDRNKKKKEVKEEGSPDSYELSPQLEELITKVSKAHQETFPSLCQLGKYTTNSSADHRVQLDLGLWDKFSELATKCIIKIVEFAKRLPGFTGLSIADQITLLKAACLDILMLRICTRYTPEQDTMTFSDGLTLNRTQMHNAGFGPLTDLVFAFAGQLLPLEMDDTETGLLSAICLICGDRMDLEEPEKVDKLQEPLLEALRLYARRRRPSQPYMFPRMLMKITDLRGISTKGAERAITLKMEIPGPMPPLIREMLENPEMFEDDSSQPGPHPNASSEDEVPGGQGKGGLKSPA
Description: as §1

SMILES	EC50 (RXRβ [1])	% efficacy, RXR Trans. β (RXRβ [1])	Ki (RXRα [2])	Ki (RXRβ [3])	Ki (RARγ [4])	Ki (RARβ [5])	EC50 (RXRα [6])	Emax (RXRα [6])	EC50 (RXRγ [7])	% efficacy, RXR Trans. Y (RXRγ [7])	Ki (RXRγ [8])	EC50 (RARβ [9])	Emax (RARβ [9])	EC50 (RARγ [10]; NA = Not Active, read-out: RAR Trans. EC50 (nM) Y)	% efficacy, RAR Trans. Y (RARγ [10]; relative to 10^−6 M ATRA)
CCN(c1ccc2c(c1)C(C)=CCC2(C)C)c1ccc(C(=O)O)cn1 [Compound 170, 6-[Ethyl-(5,5,8-trimethyl-5,6-dihydro-naphthalen-2-yl)-amino]-nicotinic acid]	379 nM	(110) %	64 nM	190 nM	> 10000 nM	> 10000 nM	33 nM	113%	67 nM	(127) %	61 nM	–	–	–	–
CCCN(c1ccc(C(=O)O)cc1)c1cc2c(cc1OCc1ccccc1)C(C)(C)CC=C2C(C)C [Compound 157]	–	–	8 nM	46 nM	13000 nM	1200 nM	–	–	–	–	99 nM	> 1000 nM	32%	–	–
CCN(c1ccc2c(c1)C(C(C)C)=CCC2(C)C)c1ccc(C(=O)O)cn1 [Compound 172, 6-[Ethyl-(8-isopropyl5,5-dimethyl-5,6-dihydro-naphthalen-2-yl)-amino]-nicotinic acid]	13 nM	(112) %	0.7 nM	4 nM	> 10000 nM	6000 nM	2 nM	109%	2 nM	(118) %	6 nM	–	–	–	–
CCN(c1ccc(C(=O)O)cc1)c1ccc2c(c1)C(C(C)(C)C)=CCC2(C)C [Compound 88]	41 nM	(100) %	3 nM	12 nM	3500 nM	> 10000 nM	4 nM	114%	5 nM	(120) %	21 nM	–	–	–	–
CCCN(c1ccc(C(=O)O)cc1)c1cc2c(cc1C)C(C)=CCC2(C)C [Compound 46, 4-[n-Propyl(3,5,8,8-tetramethyl-7,8-dihydronaphthalen-2-yl)amino]benzoic acid]	> 1000 nM	(8) %	> 10000 nM	> 10000 nM	> 10000 nM	> 10000 nM	–	55%	–	(65) %	> 10000 nM	–	–	–	–
CCN(c1ccc(C(=O)O)cc1)c1cc2c(cc1OC)C(C)(C)CC=C2C(C)C [Compound 148, 4-[Ethyl-(8-isopropyl-3-methoxy-5,5-dimethyl-5,6-dihydronaphthalen-2-yl)amino]benzoic acid]	8 nM	(63) %	5 nM	15 nM	> 10000 nM	7500 nM	0.5 nM	64%	2 nM	(101) %	37 nM	–	–	–	–
C=CCN(c1ccc(C(=O)O)cc1)c1ccc2c(c1)C(C(C)(C)C)=CCC2(C)C [Compound 90, 4-[(8-t-Butyl-5,5-dimethyl-5,6-dihydronaphthalen-2-yl)(prop-2-en-yl)lamino]-benzoic acid]	76 nM	(110) %	39 nM	84 nM	> 10000 nM	> 10000 nM	12 nM	112%	12 nM	(102) %	68 nM	> 1000 nM	15%	> 1000 nM	(5) %
